Reference: US20140263071A1, “METHOD FOR COLLECTING METALS” (CHEMEC OY AB, priority 2011, published 2014)
Marks after values point to notes of the source that are not given here.

Assays:
[1] = Purification of ash water from toxic waste disposal plant, TS 3 (Example 18)
Method: An ash sample (200 g) obtained from toxic waste disposal plant was suspended to water (2.0 l) and stirred for 24 h and filtrated. Approximate metal concentrations (pH 3.62): 1-4 g/l of Ca^2+, K^+ and Na^+, 0.1-0.2 g/l of Al^3+, Mg^2+ and Zn^2+; ≦0.02 g/l of Cd^2+, Mn^2+, Pb^2+ and Sr^2+.
TS 3, TS 3 diluted to 1:10 (TS 3a), TS 3 diluted to 1:100 (TS 3b) and Cd^2+, Pb^2+ and Zn^2+ spiked samples TS 3a and TS 3b were each treated with 1a (1.0 g) with stirring for 24 h. These five samples were separately filtrated trough 0.2 μm syringe filter and metal concentrations in each solution were determined by ICP-AES method before and after treatment with 1a.

[2] = Separation of silver with complexation agent by HCl elution (Example 20); conditions: for Concentration after 1a: mixture of Ag^+, 1a 10 g, 48 h; for End concentration in 1a: after HCl elutions; for Metals in 0.01M HCl: elution of loaded 1a with 0.01 M HCl (60 ml); for Metals in 0.1M HCl: elution of loaded 1a with 0.1 M HCl (60 ml); for Metals in 1M HCl: elution of loaded 1a with 1 M HCl (60 ml)
Method: A mixture of Cu(NO3)2×3H2O (20 ml, 0.1 M), AgNO3 (20 ml, 0.1 M), Fe(NO3)3 (20 ml, 0.1 M), water (40 ml) and 1a (10 g) were stirred for 48 h at room temperature. Solids were collected to sintered disc (porosity G-4), washed with water (60 ml) and eluted with 0.01 M (60 ml), 0.1 M (60 ml) and 1 M (60 ml) HCl solutions. Amounts of each metals in eluted HCl solutions were determined by AAS using standard procedures.

[3] = Simultaneous collection of Ni^2+, Zn^2+, Eu^3+, La^3+, Nd^3+, Y^3+, UO2^2+, Nb^5+ and Zr^4+ from TS 5 (Example 22); conditions: TS 5, 1a 1 g/100 ml, 24 h
Method: A test solution containing 1-15 mg/l of Al^3+, Fe^2/3+, Mg^2+, Mn^2+, Ni^2+ and Zn^2+; 0.1-0.9 mg/l of Ca^2+ and Na^+; and trace amount of other Cr^3+, Co^2+, Cu^2+, Eu^3+, La^3+, Nd^3+, Y^3+, UO2^2+ and Nb^5+ cations were prepared.
TS 5 (100 ml) was stirred with 1a (1 g) at room temperature for 24 h. After filtration trough 0.2 μm syringe filter metal concentration of Ni^2+, Zn^2+, Eu^3+, La^3+, Nd^3+, Y^3+, UO2^2+, Nb^5+ and Zr^4+ were determined by using ICP-AES and ICP-MS methods. The expulsions percent was calculated for each element from the concentration difference between initial and final solutions and the experimental results are given in Table 16.

NCCCCCCCCCCC(O)(P(=O)(O)O)P(=O)(O)O [Compound 1a, 11-Amino-1-hydroxyundecane-1,1-diyldiphosphonic acid]
Expulsion [%] ([1]; Spiked TS 3a, Al^3+): ≥ 79.3^5) % | Expulsion [%] ([1]; Spiked TS 3a, Ca^2+): 88.9% | Expulsion [%] ([1]; Spiked TS 3a, Cd^2+): 75.6% | Expulsion [%] ([1]; Spiked TS 3a, K^+): 1.8% | Expulsion [%] ([1]; Spiked TS 3a, Na^+): 3.5% | Expulsion [%] ([1]; Spiked TS 3a, Pb^2+): ≥ 97.8^5) % | Expulsion [%] ([1]; Spiked TS 3a, Sr^2+): 14.6% | Expulsion [%] ([1]; Spiked TS 3a, Zn^2+): 93.6% | Expulsion [%] ([1]; Spiked TS 3b, Ca^2+): 95.2% | Expulsion [%] ([1]; Spiked TS 3b, Cd^2+): 96.2% | Expulsion [%] ([1]; Spiked TS 3b, K^+): 0.8% | Expulsion [%] ([1]; Spiked TS 3b, Na^+): 7.1% | Expulsion [%] ([1]; Spiked TS 3b, Pb^2+): ≥ 98.1^5) % | Expulsion [%] ([1]; Spiked TS 3b, Sr^2+): 60.2% | Expulsion [%] ([1]; Spiked TS 3b, Zn^2+): 91.3% | Expulsion [%] ([1]; TS 3, Al^3+): 3.4^ % | Expulsion [%] ([1]; TS 3, Ca^2+): 1.9% | Expulsion [%] ([1]; TS 3, Cd^2+): 2.1% | Expulsion [%] ([1]; TS 3, K^+): 2.9% | Expulsion [%] ([1]; TS 3, Mg^2+): 1.5% | Expulsion [%] ([1]; TS 3, Mn^2+): 1.9% | Expulsion [%] ([1]; TS 3, Na^+): 10.8% | Expulsion [%] ([1]; TS 3, Pb^2+): 65.7% | Expulsion [%] ([1]; TS 3, Sr^2+): 2.1% | Expulsion [%] ([1]; TS 3, Zn^2+): 3.6% | Expulsion [%] ([1]; TS 3a (TS 3 diluted 1:10), Al^3+): ≥ 71.8^5) % | Expulsion [%] ([1]; TS 3a (TS 3 diluted 1:10), Ca^2+): 88.1% | Expulsion [%] ([1]; TS 3a (TS 3 diluted 1:10), K^+): 0% | Expulsion [%] ([1]; TS 3a (TS 3 diluted 1:10), Na^+): 2.0% | Expulsion [%] ([1]; TS 3a (TS 3 diluted 1:10), Pb^2+): ≥ 35.5^5) % | Expulsion [%] ([1]; TS 3a (TS 3 diluted 1:10), Sr^2+): 12.5% | Expulsion [%] ([1]; TS 3a (TS 3 diluted 1:10), Zn^2+): 0.0% | Expulsion [%] ([1]; TS 3b (TS 3 diluted 1:100), Ca^2+): 93.1% | Expulsion [%] ([1]; TS 3b (TS 3 diluted 1:100), K^+): 1.6% | Expulsion [%] ([1]; TS 3b (TS 3 diluted 1:100), Na^+): 9.9% | Expulsion [%] ([1]; TS 3b (TS 3 diluted 1:100), Sr^2+): 53.4% | Expulsion [%] ([1]; TS 3b (TS 3 diluted 1:100), Zn^2+): ≥ 48.5^5) % | Amounts of metals in 1a ([2]; Ag^+): 1320 mg/L | Concentration after 1a ([2]; Ag^+, initial 2050 mg/l, Cu^2+, Fe^3+): 730 mg/L | End concentration in 1a ([2]; Ag^+): 1300 mg/L | Metals in 0.01M HCl ([2]; Ag^+): 10 mg/L | Metals in 0.1M HCl ([2]; Ag^+): 0 mg/L | Metals in 1M HCl ([2]; Ag^+): 10 mg/L | Amounts of metals in 1a ([2]; Cu^2+): 210 mg/L | Concentration after 1a ([2]; Cu^2+, initial 1310 mg/l, Cu^2+, Fe^3+): 1100 mg/L | End concentration in 1a ([2]; Cu^2+): 0 mg/L | Metals in 0.01M HCl ([2]; Cu^2+): 0 mg/L | Metals in 0.1M HCl ([2]; Cu^2+): 10 mg/L | Metals in 1M HCl ([2]; Cu^2+): 200 mg/L | Amounts of metals in 1a ([2]; Fe^3+): 80 mg/L | Concentration after 1a ([2]; Fe^3+, initial 1040 mg/l, Cu^2+, Fe^3+): 960 mg/L | End concentration in 1a ([2]; Fe^3+): 0 mg/L | Metals in 0.01M HCl ([2]; Fe^3+): 10 mg/L | Metals in 0.1M HCl ([2]; Fe^3+): 10 mg/L | Metals in 1M HCl ([2]; Fe^3+): 60 mg/L | Expulsion [%] ([3]; Eu^3+): 98% | Expulsion [%] ([3]; La^3+): 100% | Expulsion [%] ([3]; Nb^5+): 100% | Expulsion [%] ([3]; Nd^3+): 100% | Expulsion [%] ([3]; Ni^2+): 72% | Expulsion [%] ([3]; UO2^2+): 100% | Expulsion [%] ([3]; Y^3+): 100% | Expulsion [%] ([3]; Zn^2+): 97% | Expulsion [%] ([3]; Zr^4+): 100%
